4 molecules from US9440969B2, “Compounds and methods for kinase modulation, and indications therefor” (PLEXXIKON INC., priority 2009, dated 2016) can be followed below.

A short description of the series: Relative solubility by turbidity in aqueous buffers (pH 1.5, 4.5, 6.8, 7.4). It counts as physicochemical. The conditions noted are these: for turbidity threshold (L, M, H) 1.4: pH 1.5 buffer (SGF); for turbidity threshold (L, M, H) 4.5: pH 4.5 buffer (SIF); for turbidity threshold (L, M, H) 6.8: pH 6.8 buffer (SIF); for turbidity threshold (L, M, H) 7.4: pH 7.4 buffer (HEPES). The method in brief:
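2-fold DMSO dilution series from 25 mM stocks were added to SGF (0.5M NaCl, pH 1.5), SIF (0.05M NaH2PO4, pH 4.5/6.8) or HEPES (10 mM, 150 mM NaCl, pH 7.4). Absorbance at 490, 535 and 650 nm; value is the concentration crossing OD 0.01, averaged over wavelengths. Low <31.3 μM, moderate 31.3–250 μM, high >250 μM.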

With `CCCS(=O)(=O)Nc1ccc(F)c(C(=O)c2c[nH]c3ncc(-c4cnn(C5CCNCC5)c4)cc23)c1F` [P-1002, Propane-1-sulfonic acid {2,4-difluoro-3-[5-(1-piperidin-4-yl-1H-pyrazol-4-yl)-1H-pyrrolo[2,3-b]pyridine-3-carbonyl]-phenyl}-amide], the “turbidity threshold (L, M, H) 1.4” value is recorded as “M (moderate solubility if the threshold concentration is 31.3 μM to 250 μM)”; the “turbidity threshold (L, M, H) 4.5” value is “M (moderate solubility if the threshold concentration is 31.3 μM to 250 μM)”; the “turbidity threshold (L, M, H) 6.8” value is “L (low solubility if the threshold concentration is <31.3 μM)”; the “turbidity threshold (L, M, H) 7.4” value is on record as “M (moderate solubility if the threshold concentration is 31.3 μM to 250 μM)”.
In the case of `O=C(c1c(F)ccc(NS(=O)(=O)c2ccc(C(F)(F)F)cc2)c1F)c1c[nH]c2ncc(-c3cnn(C4CCNCC4)c3)cc12` [P-1004, N-{2,4-Difluoro-3-[5-(1-piperidin-4-yl-1H-pyrazol-4-yl)-1H-pyrrolo[2,3-b]pyridine-3-carbonyl]-phenyl}-4-trifluoromethyl-benzenesulfonamide], the “turbidity threshold (L, M, H) 1.4” value is listed as “L (low solubility if the threshold concentration is <31.3 μM)”; the “turbidity threshold (L, M, H) 4.5” value is “L (low solubility if the threshold concentration is <31.3 μM)”; the “turbidity threshold (L, M, H) 6.8” value was “L (low solubility if the threshold concentration is <31.3 μM)”; the “turbidity threshold (L, M, H) 7.4” value is on record as “L (low solubility if the threshold concentration is <31.3 μM)”.
Turning to `Cc1ccc(-c2cnc3[nH]cc(C(=O)c4c(F)ccc(NS(=O)(=O)c5cc(F)ccc5F)c4F)c3c2)cn1` [P-1408, N-{2,4-Difluoro-3-[5-(6-methyl-pyridin-3-yl)-1H-pyrrolo[2,3-b]pyridine-3-carbonyl]-phenyl}-2,5-difluoro-benzenesulfonamide], the “turbidity threshold (L, M, H) 1.4” value was “M (moderate solubility if the threshold concentration is 31.3 μM to 250 μM)”; the “turbidity threshold (L, M, H) 4.5” value is listed as “L (low solubility if the threshold concentration is <31.3 μM)”; the “turbidity threshold (L, M, H) 6.8” value is “L (low solubility if the threshold concentration is <31.3 μM)”; the “turbidity threshold (L, M, H) 7.4” value is “L (low solubility if the threshold concentration is <31.3 μM)”.
Turning to `Cc1ncc(-c2cnc3[nH]cc(C(=O)c4c(F)ccc(NS(=O)(=O)c5cc(F)ccc5F)c4F)c3c2)cn1` [P-1503, N-{2,4-Difluoro-3-[5-(2-methyl-pyrimidin-5-yl)-1H-pyrrolo[2,3-b]pyridine-3-carbonyl]-phenyl}-2,5-difluoro-benzenesulfonamide], the “turbidity threshold (L, M, H) 1.4” value is reported as “L (low solubility if the threshold concentration is <31.3 μM)”; the “turbidity threshold (L, M, H) 4.5” value is “L (low solubility if the threshold concentration is <31.3 μM)”; the “turbidity threshold (L, M, H) 6.8” value is reported as “L (low solubility if the threshold concentration is <31.3 μM)”; the “turbidity threshold (L, M, H) 7.4” value was “M (moderate solubility if the threshold concentration is 31.3 μM to 250 μM)”.
